Results published in ChEMBL document CHEMBL1156492, “(R)- and (S)-verapamil differentially modulate the multidrug-resistant protein MRP1” (J Biol Chem, 2007).
Calls of active or inactive are those of the source. No cut-off for these calls is given here.

What was measured:
Type in all cases: functional, cell-based
[1] = system: BHK-21; experiment: Decrease in intracellular glutathione concentration in human MRP1 expressing hamster BHK21 cells; conditions: Mesocricetus auratus
[2] = system: BHK-21; experiment: Decrease in intracellular glutathione concentration in human MRP1 expressing hamster BHK21 cells at 5 uM; conditions: Mesocricetus auratus
[3] = system: BHK-21; experiment: Cytotoxicity against hamster BHK21 cells by MTT assay; conditions: Mesocricetus auratus
[4] = system: BHK-21; experiment: Cytotoxicity against human MRP1 expressing hamster BHK21 cells at 10 to 20 uM by MTT assay; conditions: Mesocricetus auratus
[5] = system: BHK-21; experiment: Cytotoxicity against human MRP1 expressing hamster BHK21 cells after 72 hrs by MTT assay; conditions: Mesocricetus auratus, BHK-21, 72 h
[6] = system: BHK-21; experiment: Cytotoxicity against hamster BHK21 cells after 72 hrs by MTT assay; conditions: Mesocricetus auratus, BHK-21, 72 h

For COc1ccc(CCN(C)CCC[C@@](C#N)(c2ccc(OC)c(OC)c2)C(C)C)cc1OC, the Activity [1] was “Active” and the Activity [2] was “Active”.
COc1ccc(CCN(C)CCC[C@](C#N)(c2ccc(OC)c(OC)c2)C(C)C)cc1OC was tested, and the Activity [1] was “inactive”.
COc1ccc(CCN(C)CCCC(C#N)(c2ccc(OC)c(OC)c2)C(C)C)cc1OC (racemic) was tested, and the Activity [3] was “inactive” and the Activity [4] was “Active”.
Work on CC[C@]1(O)C[C@H]2CN(CCc3c([nH]c4ccccc34)[C@@](C(=O)OC)(c3cc4c(cc3OC)N(C=O)[C@H]3[C@@](O)(C(=O)OC)[C@H](OC(C)=O)[C@]5(CC)C=CCN6CC[C@]43[C@@H]65)C2)C1 [VINCRISTINE] yielded an IC50 [5] of 9.42 nM and an IC50 [6] of 1.51 nM.
